According to ChEMBL document CHEMBL1201862, “PubChem BioAssay data set” (2004):
Calls of active or inactive are those of the source.

Key:
[1] = test system: SN12K1; experiment: cells; assay type: functional; conditions: Homo sapiens
[2] = test system: P388/ADR; experiment: cells; assay type: functional; conditions: Mus musculus
[3] = target: T1, Caspase-6 (Homo sapiens, UniProt P55212); experiment: inhibition of CASP6 peptide cleavage – biochemical, VEID-R110 fluorescence, cherry-pick, dose response (AID 720632)
T1 sequence (P55212 whole entry): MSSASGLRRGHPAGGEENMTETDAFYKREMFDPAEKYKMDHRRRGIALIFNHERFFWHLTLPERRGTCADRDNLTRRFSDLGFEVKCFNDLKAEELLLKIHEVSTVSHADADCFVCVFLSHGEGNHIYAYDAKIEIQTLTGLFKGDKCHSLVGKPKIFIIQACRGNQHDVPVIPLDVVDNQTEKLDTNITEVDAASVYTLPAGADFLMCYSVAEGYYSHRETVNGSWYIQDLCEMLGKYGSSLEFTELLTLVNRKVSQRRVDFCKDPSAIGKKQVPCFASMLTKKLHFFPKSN

[4] = target: T2, Protein RecA (Mycobacterium tuberculosis, UniProt P9WHJ3); experiment: Fluorescence Cell-Free Homogeneous Dose Retest to Identify Inhibitors of RecA-Intein Splicing Activity. [Related pubchem assays (depositor defined):AID2097, AID2223, AID489010, AID492950]; assay type: functional
T2 sequence (P9WHJ3 whole entry): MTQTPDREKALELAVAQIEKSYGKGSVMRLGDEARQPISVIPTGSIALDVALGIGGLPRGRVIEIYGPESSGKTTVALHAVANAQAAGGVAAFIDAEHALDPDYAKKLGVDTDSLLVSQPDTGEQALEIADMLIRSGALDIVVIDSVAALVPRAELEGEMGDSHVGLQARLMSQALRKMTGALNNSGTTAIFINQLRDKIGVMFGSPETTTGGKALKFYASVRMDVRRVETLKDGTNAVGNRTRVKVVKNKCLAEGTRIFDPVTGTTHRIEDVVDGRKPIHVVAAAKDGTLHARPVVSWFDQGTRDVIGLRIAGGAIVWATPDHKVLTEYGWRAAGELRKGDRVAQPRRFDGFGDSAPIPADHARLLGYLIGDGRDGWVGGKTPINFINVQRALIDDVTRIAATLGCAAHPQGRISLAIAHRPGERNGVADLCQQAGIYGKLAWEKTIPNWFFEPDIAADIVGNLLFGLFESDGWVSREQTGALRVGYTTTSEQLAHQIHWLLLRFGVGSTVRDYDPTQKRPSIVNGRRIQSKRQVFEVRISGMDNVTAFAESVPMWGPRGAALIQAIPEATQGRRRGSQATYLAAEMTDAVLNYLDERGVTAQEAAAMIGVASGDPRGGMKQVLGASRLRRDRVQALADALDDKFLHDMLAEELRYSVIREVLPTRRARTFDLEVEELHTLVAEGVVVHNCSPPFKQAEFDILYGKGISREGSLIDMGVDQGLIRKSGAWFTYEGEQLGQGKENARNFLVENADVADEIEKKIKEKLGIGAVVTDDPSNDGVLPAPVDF

[5] = test system: P388; experiment: cells; assay type: functional; conditions: Mus musculus
[6] = target: T3, DNA repair protein RAD52 homolog (Homo sapiens, UniProt P43351); assay type: functional, biochemical
T3 sequence (P43351 whole entry): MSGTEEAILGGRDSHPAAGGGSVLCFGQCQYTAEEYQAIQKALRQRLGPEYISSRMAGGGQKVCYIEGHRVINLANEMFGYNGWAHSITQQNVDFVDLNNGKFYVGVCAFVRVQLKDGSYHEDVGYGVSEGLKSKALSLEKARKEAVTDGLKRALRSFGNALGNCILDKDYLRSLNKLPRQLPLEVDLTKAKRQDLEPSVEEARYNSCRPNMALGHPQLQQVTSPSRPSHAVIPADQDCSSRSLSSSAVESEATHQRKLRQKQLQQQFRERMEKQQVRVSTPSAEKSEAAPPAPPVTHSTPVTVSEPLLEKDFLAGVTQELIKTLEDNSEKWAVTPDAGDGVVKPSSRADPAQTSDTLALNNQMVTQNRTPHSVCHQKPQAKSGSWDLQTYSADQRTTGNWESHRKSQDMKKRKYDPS

[7] = target: Dual specificity tyrosine-phosphorylation-regulated kinase 1A (Rattus norvegicus, UniProt Q63470); assay type: biochemical, Homo sapiens
[8] = target: T4, Replicative DNA helicase DnaB (Mycobacterium tuberculosis, UniProt P9WMR3); experiment: DnaB intein splicing inhibitors, dose response, biochemical, cell-free fluorescence (AID 449749); assay type: functional
T4 sequence (P9WMR3 whole entry): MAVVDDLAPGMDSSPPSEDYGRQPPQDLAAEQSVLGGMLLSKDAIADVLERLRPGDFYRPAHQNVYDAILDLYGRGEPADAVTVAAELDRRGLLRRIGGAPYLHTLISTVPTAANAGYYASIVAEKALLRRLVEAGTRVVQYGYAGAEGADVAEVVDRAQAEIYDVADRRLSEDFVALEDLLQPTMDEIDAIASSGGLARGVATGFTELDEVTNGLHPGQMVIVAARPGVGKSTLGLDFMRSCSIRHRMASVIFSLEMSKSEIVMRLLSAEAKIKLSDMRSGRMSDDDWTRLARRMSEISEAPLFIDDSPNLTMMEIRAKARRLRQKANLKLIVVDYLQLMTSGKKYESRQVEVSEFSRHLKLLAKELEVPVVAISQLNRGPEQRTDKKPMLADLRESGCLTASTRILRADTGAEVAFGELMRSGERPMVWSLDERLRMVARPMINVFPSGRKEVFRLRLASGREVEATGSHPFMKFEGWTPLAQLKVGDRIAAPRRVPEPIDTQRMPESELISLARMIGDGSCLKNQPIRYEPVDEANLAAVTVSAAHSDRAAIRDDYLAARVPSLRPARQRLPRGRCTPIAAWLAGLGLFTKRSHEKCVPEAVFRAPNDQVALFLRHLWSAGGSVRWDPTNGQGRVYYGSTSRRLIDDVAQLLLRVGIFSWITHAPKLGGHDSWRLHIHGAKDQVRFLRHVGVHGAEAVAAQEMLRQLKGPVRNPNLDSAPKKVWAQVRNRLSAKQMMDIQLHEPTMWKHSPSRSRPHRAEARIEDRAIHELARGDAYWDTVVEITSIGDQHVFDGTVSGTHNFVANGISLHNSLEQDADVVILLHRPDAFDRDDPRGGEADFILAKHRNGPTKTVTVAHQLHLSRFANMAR

[9] = bead-based luminescence quenchers, dual-tagged ARNT – biochemical, AlphaScreen, cherry-pick, artefact control for ARNT-TACC3 interaction inhibitor project, dose response (AID 651705); assay type: functional;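 also: AlphaScreen bead proximity signal that flags compounds interfering with the detection technology; potency reflects signal decrease which marks the compound as an assay artifact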
[10] = target: Tyrosyl-DNA phosphodiesterase 2 (Homo sapiens, UniProt O95551); experiment: potency against TDP2 phosphodiesterase activity – biochemical, epi absorbance, IC50, dose response (AID 743297)
[11] = target: T5, Rac GTPase-activating protein 1 (Homo sapiens, UniProt Q9H0H5); experiment: blockers of MgcRacGAP-driven Rac1 GTP hydrolysis – biochemical, ADP Hunter fluorescence, primary and confirmatory, confirmation (AID 624330); assay type: functional
T5 sequence (Q9H0H5 whole entry): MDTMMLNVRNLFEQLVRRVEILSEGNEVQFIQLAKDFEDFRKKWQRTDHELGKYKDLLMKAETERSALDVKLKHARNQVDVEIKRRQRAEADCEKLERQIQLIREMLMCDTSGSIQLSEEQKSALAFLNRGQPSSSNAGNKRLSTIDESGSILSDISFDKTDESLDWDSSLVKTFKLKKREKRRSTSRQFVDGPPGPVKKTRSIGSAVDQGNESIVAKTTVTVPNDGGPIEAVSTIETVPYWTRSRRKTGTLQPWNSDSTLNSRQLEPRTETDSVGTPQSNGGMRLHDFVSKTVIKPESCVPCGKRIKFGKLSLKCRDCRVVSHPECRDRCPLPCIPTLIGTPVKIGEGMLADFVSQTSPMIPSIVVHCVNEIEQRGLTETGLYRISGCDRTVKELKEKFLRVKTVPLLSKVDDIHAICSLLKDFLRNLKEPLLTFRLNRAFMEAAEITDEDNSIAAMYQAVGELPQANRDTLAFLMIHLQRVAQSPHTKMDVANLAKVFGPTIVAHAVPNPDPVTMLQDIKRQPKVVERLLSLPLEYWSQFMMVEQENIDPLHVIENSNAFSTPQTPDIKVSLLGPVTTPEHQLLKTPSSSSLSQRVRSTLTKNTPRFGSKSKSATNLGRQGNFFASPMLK

[12] = viability loss in HeLa cells – cytotoxicity control for MgcRacGAP inhibitor project, dose response (AID 624300); assay type: functional
[13] = target: T6, Ubiquitin-conjugating enzyme E2 N (Homo sapiens, UniProt P61088); assay type: functional;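 also: Dose-response confirmation in a TR-FRET assay detecting UBC13-driven polyubiquitin chain formation, inhibition measured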
T6 sequence (P61088 whole entry): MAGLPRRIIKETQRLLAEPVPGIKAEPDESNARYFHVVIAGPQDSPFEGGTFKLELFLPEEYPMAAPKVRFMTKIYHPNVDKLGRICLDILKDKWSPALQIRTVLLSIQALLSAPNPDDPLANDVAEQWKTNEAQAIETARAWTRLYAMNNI

[14] = luciferase reporter signal suppression in cells – H4 neuroglioma cells, luminescence, dose response (AID 1990); assay type: functional, cell-based
[15] = general cell-killing toxicity readout – plate reader, dry powder samples, cytotoxicity control for PAX8 inhibitor project, dose response (AID 743021); assay type: functional, cell-based
[16] = Luminescence Cell-Based Dose Response HTS to Identify Inhibitors of 5'UTR Stem-Loop Driven Prion Protein mRNA Translation in H4 Neuroglioblastoma Cells. [Related pubchem assays: 1827 (Project Summary), 1813 (Primary HTS)]; assay type: functional
[17] = alpha-synuclein stem-loop luciferase translation blockers – H4 neuroglioma cells, luminescence, confirmation (AID 1988); assay type: functional, cell-based
[18] = target: Paired box protein Pax-8 (Homo sapiens, UniProt Q06710); experiment: PAX8 transcriptional activity inhibition in RMG-I – RMG-I cells, luciferase, cherry-pick, dose response (AID 687027); assay type: functional, cell-based;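 also: luciferase reporter driven by Pax8 target thyroperoxidase promoter measured by SteadyGlo luminescence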
[19] = target: T7, Oxysterols receptor LXR-beta (Homo sapiens, UniProt P55055); assay type: functional, cell-based;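 also: agonist activity at LXR measured by a cell-based luminescence readout across a dose range, run as a counterscreen for daf-12 agonists; HEK293 cells with Gal4-LXR fusion and GAL4-driven luciferase reporter; potency for activation of Gal4-LXR reporter so compounds are agonists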
T7 sequence (P55055 whole entry): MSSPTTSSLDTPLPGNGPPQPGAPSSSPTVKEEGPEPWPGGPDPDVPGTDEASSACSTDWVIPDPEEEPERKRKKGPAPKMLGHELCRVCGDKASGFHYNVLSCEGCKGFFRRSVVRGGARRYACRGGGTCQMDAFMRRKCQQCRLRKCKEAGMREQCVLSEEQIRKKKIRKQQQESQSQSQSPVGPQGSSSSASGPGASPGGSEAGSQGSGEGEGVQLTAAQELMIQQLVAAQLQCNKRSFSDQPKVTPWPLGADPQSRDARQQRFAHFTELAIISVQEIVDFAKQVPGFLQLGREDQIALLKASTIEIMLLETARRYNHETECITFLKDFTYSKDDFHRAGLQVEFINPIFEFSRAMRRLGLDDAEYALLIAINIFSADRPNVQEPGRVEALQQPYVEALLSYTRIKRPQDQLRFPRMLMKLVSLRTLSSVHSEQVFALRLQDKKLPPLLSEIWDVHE

[20] = target: Endoplasmic reticulum aminopeptidase 1 (Homo sapiens, UniProt Q9NZ08); experiment: inhibition of human ERAP1 enzyme activity – biochemical, cherry-pick, set 2, plate reader, dose response (AID 743314)
[21] = HeLa cell viability loss – plate reader, dry powder, cytotoxicity control, dose response (AID 651946); assay type: functional, cell-based
[22] = inhibitors of non-replicating M. tuberculosis, dose response, luciferase, dry powder (AID 651619); assay type: functional; conditions: Mycobacterium tuberculosis
[23] = inhibitors of non-replicating M. tuberculosis, dose response, luciferase, dry powder (AID 651620); assay type: functional; conditions: Mycobacterium tuberculosis
[24] = target: Disintegrin and metalloproteinase domain-containing protein 17 (Homo sapiens, UniProt P78536); experiment: exosite inhibitors of ADAM17, dose response, biochemical (AID 743260)
[25] = inhibition of ADAM10 peptide cleavage – biochemical, FRET peptide substrate, recombinant human ADAM10, selectivity assay for ADAM17 exosite inhibitor project, dose response (AID 743259);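 also: ADAM10 enzyme cleaving a FRET peptide substrate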
[26] = activation of miR-122 Renilla sensor silencing – cell-based, Huh7 psiCHECK-miR122, Renilla luciferase, cherry-picked, dose response (AID 651956); assay type: functional;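 also: huh7 hepatoma cells stably carrying a psiCHECK-2 miR-122 sensor plasmid; renilla luciferase signal reporting endogenous miR-122 activity after 48 h compound exposure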
[27] = viability loss in A549 lung cancer cells – cell-based, cherry-picks, […], cytotoxicity control, dose response (AID 1053119); assay type: functional
[28] = general mammalian cell viability loss – activator set, cherry-pick, cytotoxicity control for miR-122 modulator project, dose response (AID 720690); assay type: functional, cell-based;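 also: HEK293T human cells scored for general mammalian cytotoxicity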
[29] = viability loss in HEK293 kidney cells – cell-based, cherry-picks, set 5, cytotoxicity control, dose response (AID 1053117); assay type: functional

Sequence of Tyrosyl-DNA phosphodiesterase 2 (O95551 whole entry): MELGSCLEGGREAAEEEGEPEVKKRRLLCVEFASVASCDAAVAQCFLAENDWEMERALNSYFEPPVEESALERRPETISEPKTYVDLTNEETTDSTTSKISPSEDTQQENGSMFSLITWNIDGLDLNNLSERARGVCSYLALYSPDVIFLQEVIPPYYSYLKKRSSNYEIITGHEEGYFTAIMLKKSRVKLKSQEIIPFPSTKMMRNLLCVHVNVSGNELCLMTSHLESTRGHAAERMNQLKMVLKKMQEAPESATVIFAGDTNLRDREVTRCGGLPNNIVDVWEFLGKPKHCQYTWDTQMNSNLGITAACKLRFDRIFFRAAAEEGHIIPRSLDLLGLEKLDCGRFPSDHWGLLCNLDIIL
Sequence of Disintegrin and metalloproteinase domain-containing protein 17 (P78536 whole entry, the tested form may be a part): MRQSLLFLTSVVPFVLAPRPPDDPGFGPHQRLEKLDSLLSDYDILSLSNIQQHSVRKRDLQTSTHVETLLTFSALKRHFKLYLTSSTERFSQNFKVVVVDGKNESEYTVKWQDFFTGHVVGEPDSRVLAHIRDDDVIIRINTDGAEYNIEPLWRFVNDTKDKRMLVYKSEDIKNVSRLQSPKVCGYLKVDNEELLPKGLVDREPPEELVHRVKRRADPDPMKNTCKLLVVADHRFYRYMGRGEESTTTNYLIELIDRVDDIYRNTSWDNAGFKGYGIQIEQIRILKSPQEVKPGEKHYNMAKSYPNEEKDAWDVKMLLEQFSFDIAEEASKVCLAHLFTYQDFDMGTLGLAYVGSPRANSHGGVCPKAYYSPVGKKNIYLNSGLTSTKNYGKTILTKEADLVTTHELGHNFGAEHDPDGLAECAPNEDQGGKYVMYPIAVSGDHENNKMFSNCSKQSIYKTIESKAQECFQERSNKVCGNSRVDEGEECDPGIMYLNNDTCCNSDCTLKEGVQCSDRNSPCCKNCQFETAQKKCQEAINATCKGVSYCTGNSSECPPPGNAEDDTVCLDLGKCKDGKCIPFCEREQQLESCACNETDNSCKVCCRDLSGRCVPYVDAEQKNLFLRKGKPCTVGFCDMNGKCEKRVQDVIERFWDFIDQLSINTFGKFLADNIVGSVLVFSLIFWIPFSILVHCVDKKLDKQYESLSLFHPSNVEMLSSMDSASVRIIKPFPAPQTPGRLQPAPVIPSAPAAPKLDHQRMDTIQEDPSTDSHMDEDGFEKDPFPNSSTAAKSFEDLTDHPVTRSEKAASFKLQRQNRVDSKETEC
Sequence of Paired box protein Pax-8 (Q06710 whole entry, the tested form may be a part): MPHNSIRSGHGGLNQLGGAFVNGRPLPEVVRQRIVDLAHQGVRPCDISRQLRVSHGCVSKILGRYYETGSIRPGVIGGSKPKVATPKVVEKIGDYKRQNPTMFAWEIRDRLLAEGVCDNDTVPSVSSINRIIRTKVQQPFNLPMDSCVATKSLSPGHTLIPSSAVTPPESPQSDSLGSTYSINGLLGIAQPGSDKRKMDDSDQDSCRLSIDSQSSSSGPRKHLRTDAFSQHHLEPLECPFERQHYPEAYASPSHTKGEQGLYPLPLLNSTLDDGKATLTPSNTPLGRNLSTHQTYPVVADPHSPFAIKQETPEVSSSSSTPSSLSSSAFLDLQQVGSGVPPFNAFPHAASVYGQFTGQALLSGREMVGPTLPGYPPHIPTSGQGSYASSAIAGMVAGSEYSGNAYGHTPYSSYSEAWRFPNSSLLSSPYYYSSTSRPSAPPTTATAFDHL
Sequence of Endoplasmic reticulum aminopeptidase 1 (Q9NZ08 whole entry): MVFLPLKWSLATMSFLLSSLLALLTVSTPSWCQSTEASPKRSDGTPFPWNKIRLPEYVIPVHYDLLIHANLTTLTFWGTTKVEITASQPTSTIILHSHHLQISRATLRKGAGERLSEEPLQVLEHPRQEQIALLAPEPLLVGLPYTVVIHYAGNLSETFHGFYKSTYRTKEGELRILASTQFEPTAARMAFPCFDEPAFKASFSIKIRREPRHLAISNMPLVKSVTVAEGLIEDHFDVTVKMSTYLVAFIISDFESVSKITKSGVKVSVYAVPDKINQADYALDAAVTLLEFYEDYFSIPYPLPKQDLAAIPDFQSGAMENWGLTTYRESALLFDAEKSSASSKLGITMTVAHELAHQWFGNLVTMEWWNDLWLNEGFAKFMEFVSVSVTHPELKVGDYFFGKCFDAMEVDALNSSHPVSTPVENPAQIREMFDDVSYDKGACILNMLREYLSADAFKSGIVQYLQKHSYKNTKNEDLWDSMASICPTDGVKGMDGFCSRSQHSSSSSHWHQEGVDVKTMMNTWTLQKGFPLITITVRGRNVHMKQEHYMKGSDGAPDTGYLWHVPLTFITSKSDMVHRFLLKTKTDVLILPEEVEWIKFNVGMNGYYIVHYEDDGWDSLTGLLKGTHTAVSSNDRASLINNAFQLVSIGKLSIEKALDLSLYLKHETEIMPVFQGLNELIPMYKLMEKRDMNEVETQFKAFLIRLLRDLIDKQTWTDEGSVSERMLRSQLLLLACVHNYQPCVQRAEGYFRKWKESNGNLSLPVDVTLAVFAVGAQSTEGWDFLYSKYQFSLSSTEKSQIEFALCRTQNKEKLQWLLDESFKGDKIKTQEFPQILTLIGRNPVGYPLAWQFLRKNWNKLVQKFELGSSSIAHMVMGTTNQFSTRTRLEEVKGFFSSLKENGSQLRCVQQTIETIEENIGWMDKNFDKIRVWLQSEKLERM

COc1cc2c(cc1OC)-c1c3c(cc4c1[C@@H](C2)N(C)CC4)OCO3
GI50 [1]: 6.1 µM (inactive)
GI50 [2]: 7.08 µM (inactive)
AC50 [3]: 5.63 µM (active)
EC50 [4]: 0.952 µM (active)
GI50 [5]: 8.53 µM (inactive)
AC50 [6]: 1.18 µM (active)
AC50 [7]: 2.09 µM (active)
AC50 [8]: 26.7 µM (active)
AC50 [9]: 116 µM (active)
IC50 [10]: 7.83 µM (active)

COc1ccc2nc(C)cc(N/N=C/c3cccc(OC)c3O)c2c1
IC50 [11]: 51.8 µM (active)
CC50 [12]: 23.4 µM (active)
IC50 [13]: > 20 µM (inactive)
EC50 [14]: > 120 µM (not active)
AC50 [15]: 32.4 µM (active)
EC50 [16]: > 120 µM (not active)
EC50 [17]: 7.76 µM (active)
AC50 [18]: 12 µM (active)

CCCCCc1nnc(NC(=O)C2=COCCO2)s1
EC50 [19]: > 67.6 µM (inactive)

COc1ccc2c3c([nH]c2c1)[C@H](CO)N(Cc1ccccc1OC)CC31CN(C)C1
AC50 [20]: 14.9 µM (active)

c1ccc(COc2nnc(-c3ccccc3)o2)cc1
AC50 [21]: > 52 µM (inactive)
IC90 [22]: 8 µM (active)
IC90 [23]: 8 µM (active)

O=C(c1cc2c(s1)CCCCCC2)N1CCC2(CC1)OCCO2
IC50 [24]: > 69.5 µM (inactive)
IC50 [25]: > 69.5 µM (inactive)

CO[C@H]1CN(C)C(=O)c2cc(NC(=O)Nc3ccc(Cl)c(Cl)c3)ccc2OC[C@@H](C)NC[C@@H]1C
AC50 [26]: 21.6 µM (active)
AC50 [27]: > 52 µM (inactive)
AC50 [28]: 48 µM (active)
AC50 [29]: > 52 µM (inactive)
